This passage reports remaining binding results from PMC8799717, “Pharmacological targeting PIKfyve and tubulin as an effective treatment strategy for double-hit lymphoma” (Cell Death Discovery, 2022).

Among the targets are CSNK2A2 (Homo sapiens, UniProt P19784); CAMK2G (Homo sapiens, UniProt Q13555); BMPR1A (Homo sapiens, UniProt P36894); FGFR1 (Homo sapiens, UniProt P11362); CLK3 (Homo sapiens, UniProt P49761); DMPK (Homo sapiens, UniProt Q09013); FGFR3(G697C) (Homo sapiens, UniProt P22607, G697C); FGFR2 (Homo sapiens, UniProt P21802); ACVRL1 (Homo sapiens, UniProt P37023); TAOK1 (Homo sapiens, UniProt Q7L7X3); CSNK1A1 (Homo sapiens, UniProt P48729); ROCK1 (Homo sapiens, UniProt Q13464); SIK2 (Homo sapiens, UniProt Q9H0K1); HIPK3 (Homo sapiens, UniProt Q9H422); CDKL2 (Homo sapiens, UniProt Q92772); MYLK4 (Homo sapiens, UniProt Q86YV6); EPHA4 (Homo sapiens, UniProt P54764); MAST1 (Homo sapiens, UniProt Q9Y2H9); MARK1 (Homo sapiens, UniProt Q9P0L2); CAMK1 (Homo sapiens, UniProt Q14012); PKN2 (Homo sapiens, UniProt Q16513); EGFR(L747-T751del,Sins) (Homo sapiens, UniProt P00533, DEL747-750/T751S).

Common to all, as to assay: biochemical
Common to all, as to design: KINOMEscan active-site-directed competition binding panel, 468 kinases, percent of DMSO control at 1 uM
Conditions in all cases: KINOMEscan binding, percent of DMSO control; read-out: Ctrl%

A further assay has as its target T1, PAK7 (Homo sapiens, UniProt Q9P286).
T1 construct: gene PAK5

Another assay concerns the target T2, MST4 (Homo sapiens, UniProt Q9P289).
T2 construct: gene STK26

BMPR1A, sequence (P36894 whole entry): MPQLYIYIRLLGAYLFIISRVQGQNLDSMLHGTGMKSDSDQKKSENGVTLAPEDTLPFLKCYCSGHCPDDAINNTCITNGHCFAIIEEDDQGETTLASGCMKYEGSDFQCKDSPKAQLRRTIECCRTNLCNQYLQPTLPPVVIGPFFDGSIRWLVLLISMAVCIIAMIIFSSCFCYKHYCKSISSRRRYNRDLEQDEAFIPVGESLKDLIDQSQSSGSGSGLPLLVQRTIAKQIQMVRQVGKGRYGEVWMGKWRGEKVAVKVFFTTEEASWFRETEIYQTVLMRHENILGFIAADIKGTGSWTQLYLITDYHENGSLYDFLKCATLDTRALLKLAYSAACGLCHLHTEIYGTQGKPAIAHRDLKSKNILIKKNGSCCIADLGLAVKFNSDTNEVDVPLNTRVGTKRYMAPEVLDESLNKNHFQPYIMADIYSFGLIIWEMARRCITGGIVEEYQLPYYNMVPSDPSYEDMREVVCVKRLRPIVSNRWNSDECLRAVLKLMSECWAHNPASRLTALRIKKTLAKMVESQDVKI
ROCK1, sequence (Q13464 whole entry): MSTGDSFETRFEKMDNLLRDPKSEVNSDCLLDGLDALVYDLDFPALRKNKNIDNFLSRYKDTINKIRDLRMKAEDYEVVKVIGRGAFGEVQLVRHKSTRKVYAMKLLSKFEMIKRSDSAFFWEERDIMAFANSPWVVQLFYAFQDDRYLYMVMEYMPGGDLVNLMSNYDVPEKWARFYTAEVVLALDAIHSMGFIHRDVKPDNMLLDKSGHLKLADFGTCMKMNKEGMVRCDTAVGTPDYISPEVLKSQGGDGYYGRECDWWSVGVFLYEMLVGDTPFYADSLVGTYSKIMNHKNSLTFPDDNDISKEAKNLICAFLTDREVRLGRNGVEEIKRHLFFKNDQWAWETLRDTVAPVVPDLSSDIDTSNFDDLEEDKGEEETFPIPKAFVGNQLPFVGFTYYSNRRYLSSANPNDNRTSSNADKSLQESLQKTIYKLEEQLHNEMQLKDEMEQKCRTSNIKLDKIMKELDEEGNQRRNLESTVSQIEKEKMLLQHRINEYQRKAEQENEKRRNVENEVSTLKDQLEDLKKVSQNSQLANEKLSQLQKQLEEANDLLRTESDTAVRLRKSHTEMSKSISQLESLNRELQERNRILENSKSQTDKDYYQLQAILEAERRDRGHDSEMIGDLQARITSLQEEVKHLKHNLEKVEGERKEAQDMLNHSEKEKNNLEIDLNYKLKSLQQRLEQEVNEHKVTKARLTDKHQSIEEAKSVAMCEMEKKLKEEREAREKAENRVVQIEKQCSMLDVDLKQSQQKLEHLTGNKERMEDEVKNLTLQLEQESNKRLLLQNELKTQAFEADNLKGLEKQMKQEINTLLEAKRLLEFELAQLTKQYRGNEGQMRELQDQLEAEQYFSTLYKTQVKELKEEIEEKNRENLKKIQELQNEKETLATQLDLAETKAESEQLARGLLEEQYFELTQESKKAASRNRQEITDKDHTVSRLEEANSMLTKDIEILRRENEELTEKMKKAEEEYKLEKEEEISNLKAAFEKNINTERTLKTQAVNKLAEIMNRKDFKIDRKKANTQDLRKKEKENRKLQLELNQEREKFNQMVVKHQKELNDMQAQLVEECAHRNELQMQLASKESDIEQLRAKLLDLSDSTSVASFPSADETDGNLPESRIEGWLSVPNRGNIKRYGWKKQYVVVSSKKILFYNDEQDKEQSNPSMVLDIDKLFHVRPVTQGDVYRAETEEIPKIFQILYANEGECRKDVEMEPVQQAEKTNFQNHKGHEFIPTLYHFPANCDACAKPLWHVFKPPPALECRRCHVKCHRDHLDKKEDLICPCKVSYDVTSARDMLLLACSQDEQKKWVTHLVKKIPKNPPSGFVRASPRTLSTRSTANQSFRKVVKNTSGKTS
TAOK1, sequence (Q7L7X3 whole entry): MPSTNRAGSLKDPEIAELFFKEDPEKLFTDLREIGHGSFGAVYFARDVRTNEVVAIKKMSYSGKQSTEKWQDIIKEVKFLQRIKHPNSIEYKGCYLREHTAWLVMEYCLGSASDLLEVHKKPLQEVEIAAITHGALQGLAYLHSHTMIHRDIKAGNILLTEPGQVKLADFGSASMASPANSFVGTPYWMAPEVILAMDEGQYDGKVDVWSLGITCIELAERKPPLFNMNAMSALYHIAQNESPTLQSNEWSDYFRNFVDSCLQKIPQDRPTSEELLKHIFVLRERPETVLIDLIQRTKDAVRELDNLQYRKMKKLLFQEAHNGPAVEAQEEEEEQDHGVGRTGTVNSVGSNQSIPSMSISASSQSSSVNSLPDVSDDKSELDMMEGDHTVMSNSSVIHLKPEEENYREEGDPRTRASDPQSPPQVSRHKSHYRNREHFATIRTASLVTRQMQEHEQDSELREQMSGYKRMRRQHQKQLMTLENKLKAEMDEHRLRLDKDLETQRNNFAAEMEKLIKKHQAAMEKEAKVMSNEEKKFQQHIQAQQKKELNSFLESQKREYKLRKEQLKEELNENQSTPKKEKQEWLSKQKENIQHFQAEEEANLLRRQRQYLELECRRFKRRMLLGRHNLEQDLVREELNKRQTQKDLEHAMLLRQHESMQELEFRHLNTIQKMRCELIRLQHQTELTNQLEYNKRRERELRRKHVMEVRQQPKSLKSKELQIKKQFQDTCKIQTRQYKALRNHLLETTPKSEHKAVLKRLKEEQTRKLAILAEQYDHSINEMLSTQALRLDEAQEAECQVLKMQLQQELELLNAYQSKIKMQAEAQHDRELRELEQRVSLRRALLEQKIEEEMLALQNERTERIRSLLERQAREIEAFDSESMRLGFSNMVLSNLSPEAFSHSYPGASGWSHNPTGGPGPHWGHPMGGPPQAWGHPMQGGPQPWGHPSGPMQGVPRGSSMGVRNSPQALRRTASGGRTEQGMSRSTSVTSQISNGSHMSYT
FGFR3(G697C), sequence (P22607 whole entry G697C): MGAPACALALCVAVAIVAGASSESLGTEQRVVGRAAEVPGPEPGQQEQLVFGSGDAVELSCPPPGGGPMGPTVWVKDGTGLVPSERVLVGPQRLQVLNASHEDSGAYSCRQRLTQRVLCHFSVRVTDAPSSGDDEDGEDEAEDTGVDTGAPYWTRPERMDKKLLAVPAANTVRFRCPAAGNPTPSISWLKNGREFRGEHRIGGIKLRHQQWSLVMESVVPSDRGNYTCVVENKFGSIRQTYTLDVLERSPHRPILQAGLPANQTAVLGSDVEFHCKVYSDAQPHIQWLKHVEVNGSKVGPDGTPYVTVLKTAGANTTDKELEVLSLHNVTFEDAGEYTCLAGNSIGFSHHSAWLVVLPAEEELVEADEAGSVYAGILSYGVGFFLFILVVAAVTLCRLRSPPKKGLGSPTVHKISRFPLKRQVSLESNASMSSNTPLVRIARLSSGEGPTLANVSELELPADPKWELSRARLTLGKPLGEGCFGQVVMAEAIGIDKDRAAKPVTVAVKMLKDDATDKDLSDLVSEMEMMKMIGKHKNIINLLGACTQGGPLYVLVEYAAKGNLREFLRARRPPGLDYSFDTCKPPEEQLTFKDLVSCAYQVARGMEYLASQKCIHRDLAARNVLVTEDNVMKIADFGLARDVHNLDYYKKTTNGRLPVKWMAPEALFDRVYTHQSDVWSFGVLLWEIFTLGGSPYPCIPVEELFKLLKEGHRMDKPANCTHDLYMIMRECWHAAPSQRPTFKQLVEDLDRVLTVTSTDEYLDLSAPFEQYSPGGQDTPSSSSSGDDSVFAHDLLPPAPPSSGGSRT
EGFR(L747-T751del,Sins), sequence (P00533 with tags, fused parts or gaps DEL747-750/T751S): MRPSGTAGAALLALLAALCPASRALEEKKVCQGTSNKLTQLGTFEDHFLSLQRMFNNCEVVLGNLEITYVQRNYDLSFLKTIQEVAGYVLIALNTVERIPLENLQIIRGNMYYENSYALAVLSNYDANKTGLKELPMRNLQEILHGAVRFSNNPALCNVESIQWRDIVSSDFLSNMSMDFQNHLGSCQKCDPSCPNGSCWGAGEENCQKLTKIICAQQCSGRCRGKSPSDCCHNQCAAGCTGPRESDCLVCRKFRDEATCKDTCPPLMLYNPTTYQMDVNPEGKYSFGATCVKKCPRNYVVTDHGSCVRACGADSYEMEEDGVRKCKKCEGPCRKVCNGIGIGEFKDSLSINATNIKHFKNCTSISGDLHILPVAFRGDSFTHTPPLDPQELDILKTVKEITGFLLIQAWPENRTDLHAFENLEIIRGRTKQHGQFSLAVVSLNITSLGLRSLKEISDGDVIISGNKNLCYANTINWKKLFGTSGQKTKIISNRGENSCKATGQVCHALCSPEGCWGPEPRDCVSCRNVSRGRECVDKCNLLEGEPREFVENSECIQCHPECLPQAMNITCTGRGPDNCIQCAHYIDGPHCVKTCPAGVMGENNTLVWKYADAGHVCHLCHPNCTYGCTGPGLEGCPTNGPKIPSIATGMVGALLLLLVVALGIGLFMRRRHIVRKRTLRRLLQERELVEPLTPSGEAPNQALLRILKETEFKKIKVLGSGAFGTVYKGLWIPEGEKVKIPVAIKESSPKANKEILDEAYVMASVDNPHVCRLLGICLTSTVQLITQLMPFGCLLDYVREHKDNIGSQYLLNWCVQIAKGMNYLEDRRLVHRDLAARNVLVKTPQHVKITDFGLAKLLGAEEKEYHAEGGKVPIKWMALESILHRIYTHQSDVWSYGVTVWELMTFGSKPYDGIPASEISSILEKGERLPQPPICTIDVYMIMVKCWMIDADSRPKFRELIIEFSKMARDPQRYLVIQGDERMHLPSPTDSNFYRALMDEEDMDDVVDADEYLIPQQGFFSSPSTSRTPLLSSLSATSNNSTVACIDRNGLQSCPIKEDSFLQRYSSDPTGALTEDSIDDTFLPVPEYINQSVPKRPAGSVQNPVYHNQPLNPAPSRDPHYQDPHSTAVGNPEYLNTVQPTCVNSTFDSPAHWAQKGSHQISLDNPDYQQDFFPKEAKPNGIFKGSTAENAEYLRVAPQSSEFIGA

In the case of `Cc1ccc(NC(=O)c2cccc(C(F)(F)F)c2)cc1Nc1cc(-c2cccnc2)nc2[nH]ccc12` [HZX-02-059], the remaining binding at 1 µM was 100% at CSNK2A2; 97% at CAMK2G; 69% on BMPR1A; 65% at PAK7; 93% on FGFR1; 82% on CLK3. The remaining binding at 1 µM on DMPK amounted to 81%; on FGFR3(G697C), 100%; on FGFR2 it was 95%; at ACVRL1, 75%; at TAOK1, 100%; at CSNK1A1, 77%. Besides, the remaining binding at 1 µM at ROCK1 was found to be 100%; on SIK2, 87%; on HIPK3 it was 94%; on MST4 it was 80%; on CDKL2, 99%; on MYLK4 it was 90%. Moreover, the remaining binding at 1 µM at EPHA4 was 8.3%; at MAST1 it was 100%; at MARK1 it was 94%; on CAMK1, 100%; at PKN2 it was 100%; on EGFR(L747-T751del,Sins) it was 77%.
